In publication PMC3731163 (MedChemComm, 2013):
Like-named read-outs stand apart in the source and are kept apart here.

What was measured:
Mtb Dxr [1] = biological target: T1, Mtb Dxr (Mycobacterium tuberculosis, UniProt P9WNS1); settings: see also Supplementary Figure 1; cited from earlier work
H37Rv Mtb [2] = assay: Whole cell antitubercular activity; type: cell-based, Mycobacterium tuberculosis
Mtb Dxr [3] = biological target: T1, Mtb Dxr; assay: Classical competition experiments; type: biochemical; settings: double reciprocal plots
H37Rv Mtb [4] = settings: cited from earlier work

T1 sequence (P9WNS1 whole entry): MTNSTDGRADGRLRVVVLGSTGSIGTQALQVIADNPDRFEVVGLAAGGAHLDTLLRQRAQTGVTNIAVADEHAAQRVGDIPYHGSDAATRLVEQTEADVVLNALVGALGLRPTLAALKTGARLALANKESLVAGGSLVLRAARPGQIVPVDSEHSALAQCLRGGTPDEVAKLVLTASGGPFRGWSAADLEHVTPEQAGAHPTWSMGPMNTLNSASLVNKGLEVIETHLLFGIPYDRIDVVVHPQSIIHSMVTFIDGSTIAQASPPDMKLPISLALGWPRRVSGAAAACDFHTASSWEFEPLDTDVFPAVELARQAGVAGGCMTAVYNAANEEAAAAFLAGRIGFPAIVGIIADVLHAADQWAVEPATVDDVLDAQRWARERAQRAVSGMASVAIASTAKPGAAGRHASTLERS

Row | Compound | mode of inhibition with respect to DXP (Mtb Dxr [1]) | inhibition of Mtb growth (in words) (H37Rv Mtb [2]) | also measured
1 | CC(=O)N(O)CCCP(=O)([O-])O.[Na+] [Compound 2, FR900098] | competitive | do not inhibit Mtb | mode of inhibition relative to NADPH (Mtb Dxr [1]): uncompetitive
2 | O=C(CCCc1ccccc1)N(O)CCCP(=O)([O-])O.[Na+] [Compound 8] |  | do not inhibit Mtb | mode of inhibition with respect to DXP (Mtb Dxr [3]): competitive; mode of inhibition with respect to NADPH (Mtb Dxr [3]): noncompetitive
3 | O=CN(O)CCCP(=O)(O)O [Compound 1, Fosmidomycin] | competitive | do not inhibit Mtb | activity against Mtb (in words) (H37Rv Mtb [4]): inactive
4 | CCOP(=O)(CCCN(O)C(=O)CCCc1ccccc1)OCC [18b] |  | display measurable antitubercular activity | inhibition of Mtb growth (in words) (H37Rv Mtb [2]; listed as diethyl ester of 8): inhibits Mtb growth
5 | CCOP(=O)(CCCN(O)C=O)OCC [Diethyl-1] |  | display measurable antitubercular activity | 
